Data published in PMC6270094, “Dibenzo[1,2,5]thiadiazepines Are Non-Competitive GABAA Receptor Antagonists” (Molecules, 2013).
Like-named read-outs stand apart in the source and are kept apart here.

What was measured:
[1] = Solubility under the electrophysiological experimental conditions; format: physicochemical; conditions: for solubility: under experimental conditions, read-out: Highest soluble concentration (insoluble above)
Protocol: To investigate this possibility, we added 100 μM 2b to the pipette solution (internal) and monitored IGABA, and we applied 2b to the outside of the cells and monitored the inhibitory effects (Figure 6). Experiments were performed using 2b, even though cLog P was less than 2, because 2c and 2d were insoluble under the conditions employed. […] Consistent with these findings, in recordings with 2b in the pipette, the amplitude of IGABA was the same 5 min (−1536 ± 379 pA) and 10 min (−1604 ± 409 pA; n = 4) after obtaining the whole-cell configuration. […] Thus, such an inhibition was as large as that observed without 2b inside the cells (Figure 6B).

[2] = system: native GABAA receptors of guinea pig myenteric neurons; test: Whole-cell recordings of membrane currents induced by GABA (IGABA) in cultured myenteric neurons; format: cell-based; conditions: for Percentage of inhibition of GABA-induced inward currents: 100 μM compound, 3 min treatment, mean ± SEM (n); for Voltage dependence of inhibitory effect (−60 mV vs +40 mV) / Time constant (t) of IGABA inhibition / Time to reach maximum inhibition: 100 μM DBTD; for Time constant (t) of IGABA inhibition: 3–180 s, Michaelis–Menten fit; for Time to reach maximum inhibition: after initial exposure; for Amplitude of IGABA with compound inside the pipette: 2b 100 μM internal; for Reversibility of current inhibition on washing: within five minutes of washing; for Effect of maximal antagonist concentration on IGABA: maximal concentrations used
From the text: Guinea pigs (100–200 g; either male or female) were sacrificed by cervical dislocation and carotid exsanguination. These methods have been approved by the Animal Care Committee of the IPICYT and are in agreement with the published Guiding Principles in the Care and Use of Animals, approved by the American Physiological Society. A segment of ~10 cm of the jejunum was removed and placed in a modified Krebs solution (in mM: NaCl, 126; NaH2PO4, 1.2; MgCl2, 1.2; CaCl2, 2.5; KCl, 5; NaH2CO3, 25; glucose, 11. The sample was gassed under 95% O2 and 5% CO2) and opened longitudinally. A dissecting microscope was used to dissect the mucosa and submucosa layers prior to removing most of the circular muscle layer, leaving the myenteric plexus embedded in a longitudinal layer.
The cell isolation procedure has been described elsewhere. The myenteric preparation was dissociated by sequential treatment with two enzymatic solutions: the first solution contained papain (0.01 mL·mL^−1 activated with 0.4 mg·mL^−1L-cysteine), and the second solution contained collagenase (1 mg·mL^−1) and dispase (4 mg·mL^−1). The enzymes were removed by washing the neurons with L15 medium, and the neurons were placed on round coverslips coated with sterile rat-tail collagen. The culture medium was varied from minimal medium to essential medium 97.5% containing 2.5% guinea pig serum, 2 mM L-glutamine, 10 U·mL^−1 penicillin, 10 μg·mL^−1 streptomycin, and 15 mM glucose.
To reduce the effects of the membrane currents other than those mediated by the activation of LGIC, experiments were conducted in the presence of Cs^+ (a potassium channel blocker). […] The holding potential was −60 mV (unless otherwise stated), and the short-term (4–50 h) primary cultures of the myenteric neurons were used to prevent space-clamp problems due to neurite growth. Glass pipettes with a resistance of 2–5 MΩ were prepared as described previously. This low resistance and slight suction inside the pipette during the recordings maintained a low series resistance (around 6 MΩ).
All experiments were conducted using standard solutions with the following compositions (in mM); inside the pipette: CsCl, 160; EGTA, 10; HEPES, 5; NaCl, 10; ATPMg, 3 and GTP, 0.1; external solution: NaCl, 160; CaCl2, 2; glucose, 11; HEPES, 5 and CsCl, 3. The pH of all solutions was adjusted to 7.3–7.4 using either CsOH (pipette solution) or NaOH (external solution). The seal resistance in the whole-cell mode ranged from 1 to 10 GΩ. The whole-cell current data were recorded on a PC using the AxoScope software (Axon Instruments, Inc.) and were analyzed using the AXOGRAPH software (Molecular Devices, CA, USA). The recording chamber was superfused with an external solution at ~2 mL·min^−1. The solution around the neuron was quickly exchanged during recordings using an eight-tube device. Each tube was connected to a syringe (10 mL) containing either the control or the experimental solution. A control tube was positioned ~300 μm in front of the recorded neuron, and substances were applied externally by abruptly interchanging the tube for another tube containing the control solution plus the drug(s). […] Experimental substances were removed by returning to the control solution. External solutions were applied by gravity, and the height of the syringes was continuously adjusted to minimize changes in the flow rate. The experiments were performed at room temperature (24 ± 1 °C).
L15 medium, minimum essential medium, Hanks solution, penicillin-streptomycin, and L-glutamine were purchased from GIBCO (Life Technologies Corp., Carlsbad, CA, USA). Collagenase and papain were purchased from Worthington (Worthington Biochemical Corp., Lakewood, NJ, USA), and dispase was purchased from Roche (Indianapolis, IN, USA). […] Pentobarbital-Na was purchased from Lab Ttokkyo, S.A. (México, D.F., Mexico).

[3] = DBTD 3–1,000 μM, 3 min before 300 μM GABA, fit assuming 100% inhibition, read-out: IC50 for inhibition of IGABA by DBTDs

O=S1(=O)Nc2ccccc2Nc2ccccc21 [2a, 6,11-Dihydrodibenzo[c,f][1,2,5]thiadiazepine-5,5-dioxide]
Solubility remark (potency could not be calculated) [1]: solubility problems
Percentage of inhibition of GABA-induced inward currents ([2]; 300 μM GABA): 28.4 ± 1.4 (5) %

O=S1(=O)Nc2ccc(F)cc2Nc2ccccc21 [2b, 9-Fluoro-6,11-dihydrodibenzo[c,f][1,2,5]thiadiazepine-5,5-dioxide]
Decrease of the maximum of the GABA concentration–response curve ([2]; 100 μM 2b): ~ 50%
Type of antagonism ([2]; 100 μM 2b, GABA concentration-response curves): non-competitive
Voltage dependence of inhibitory effect (−60 mV vs +40 mV) ([2]; 300 μM GABA): identical
Time constant (t) of IGABA inhibition ([2]; 300 μM GABA): 4.9 s
Time to reach maximum inhibition [2]: 3 min
Percentage of inhibition of GABA-induced inward currents ([2]; 300 μM GABA): 50.8 ± 2.1 (12) %
Amplitude of IGABA with compound inside the pipette ([2]; 300 μM GABA, 2 to 3 min after whole cell configuration, n = 4): −1408 ± 344 pA
Amplitude of IGABA with compound inside the pipette ([2]; 5 min after whole-cell configuration): −1536 ± 379 pA
Amplitude of IGABA with compound inside the pipette ([2]; 10 min after whole-cell configuration, n = 4): −1604 ± 409 pA
IC50 [2, 3]: 104 ± 9.2 µM
Maximum effect on GABA-activated currents ([2]; at 1 mM): complete inhibition
Reversibility of current inhibition on washing [2]: fully reversed

O=S1(=O)Nc2ccc(Cl)cc2Nc2ccccc21 [2c, 9-Chloro-6,11-dihydrodibenzo[c,f][1,2,5]thiadiazepine-5,5-dioxide]
solubility [1]: ≤ 300 µM
Voltage dependence of inhibitory effect (−60 mV vs +40 mV) ([2]; 300 μM GABA): identical
Time constant (t) of IGABA inhibition ([2]; 300 μM GABA): 2.6 s
Time to reach maximum inhibition [2]: 3 min
Percentage of inhibition of GABA-induced inward currents ([2]; 300 μM GABA): 74.2 ± 3.6 (6) %
IC50 [2, 3]: 50.4 ± 6.4 µM
Interaction with picrotoxin effect ([2]; simultaneous application, n = 4): neither picrotoxin effect was modified by 2c nor the inhibitory effect of 2c was affected by picrotoxin
Reversibility of current inhibition on washing [2]: fully reversed

O=S1(=O)Nc2ccc(Br)cc2Nc2ccccc21 [2d, 9-Bromo-6,11-dihydrodibenzo[c,f][1,2,5]thiadiazepine-5,5-dioxide]
solubility [1]: ≤ 300 µM
Voltage dependence of inhibitory effect (−60 mV vs +40 mV) ([2]; 300 μM GABA): identical
Time constant (t) of IGABA inhibition ([2]; 300 μM GABA): 29.3 s
Percentage of inhibition of GABA-induced inward currents ([2]; 300 μM GABA): 74.2 ± 2.4 (10) %
Calculated time required to reach maximum inhibition ([2]; 100 μM, calculated from fit): 17 min
Calculated maximum inhibition ([2]; 100 μM, from Michaelis–Menten fit): 87.0 ± 3.0%
IC50 [2, 3]: 47.6 ± 30.3 µM
Reversibility of current inhibition on washing [2]: fully reversed

COc1ccc2c(c1)Nc1ccccc1S(=O)(=O)N2 [2e, 9-Methoxy-6,11-dihydrodibenzo[c,f][1,2,5]thiadiazepine-5,5-dioxide]
Solubility remark (potency could not be calculated) [1]: solubility problems
Percentage of inhibition of GABA-induced inward currents ([2]; 300 μM GABA): 43.7 ± 3.8 (3) %

CCOC(=O)c1ccc2c(c1)Nc1ccccc1S(=O)(=O)N2 [2f, Ethyl 6,11-dihydrodibenzo[c,f][1,2,5]thiadiazepine-9-carboxylate-5,5-dioxide]
Solubility remark (potency could not be calculated) [1]: solubility problems
Percentage of inhibition of GABA-induced inward currents ([2]; 300 μM GABA): 47.1 ± 3.7 (7) %

O=C(O)c1ccc2c(c1)Nc1ccccc1S(=O)(=O)N2 [2g, 6,11-Dihydrodibenzo[c,f][1,2,5]thiadiazepine-9-carboxylic acid 5,5-dioxide]
Solubility remark (potency could not be calculated) [1]: solubility problems
Percentage of inhibition of GABA-induced inward currents ([2]; 300 μM GABA): 16.0 ± 2.4 (6) %
melting point: 350 °C

NCCCC(=O)O [GABA]
Amplitude of IGABA among different neurons ([2]; response to 300 μM GABA, −60 mV): 0.1–6 nA

CN1CCc2cc3c(cc2[C@H]1[C@@H]1OC(=O)c2c1ccc1c2OCO1)OCO3 [bicuculline, reference compound]
Effect of maximal antagonist concentration on IGABA [2]: virtually abolished IGABA
IC50 ([2]; read-out: IC50 for inhibition of IGABA by GABAA inhibitors): 10 ± 2 µM

CCOC(=O)c1ncn2c1CN(C)C(=O)c1cc(F)ccc1-2 [flumazenil, reference compound]
Effect of flumazenil alone on holding current or IGABA ([2]; 10 μM, 3 min, five neurons, data not shown): did not induce changes in the holding current or IGABA

picrotoxin [reference compound]
IC50 ([2]; bicuculline 0.1–100 μM, picrotoxin 3–1,000 μM, data not shown, read-out: IC50 for inhibition of IGABA by GABAA inhibitors): 6 ± 1 µM
Effect of maximal antagonist concentration on IGABA [2]: virtually abolished IGABA
